Reference: patent US11919872B1, “N′-(2-(5-(4-chlorophenyl)-1,3,4-oxadiazol-2-ylthio)acetoxy)benzimidamide as an antimicrobial compound” (KING FAISAL UNIVERSITY, priority 2023, dated 2024)
Where “and” joins values, the source holds several entries; their conditions need not be identical. Identical values can stand only once.

Tests used:
Bacillus cereus = experiment: Agar plate disc-diffusion, antibacterial inhibition zone; type: cell-based; details: nutrient agar, 37° C., 48 hours
Description: (§1) The agar plate disc-diffusion method was applied. Sterilized filter papers (6 mm in diameter) were wetted with 10 μL of a solution of N′-(2-(5-(4-chlorophenyl)-1,3,4-oxadiazol-2-ylthio)acetoxy)benzimidamide (3) to be tested, containing 10 mg/mL in DMSO, and the discs were allowed to air dry. The discs were then placed onto the surface of agar plates (nutrient agar for bacteria and Sabouraud's dextrose agar for fungi) seeded with the test organism. Each plate contained 15 mL of the agar medium, previously seeded with 0.2 mL of the broth culture of each organism pregrown for 18 hours. The plates were incubated at 37° C. for 48 hours and 72 hours for fungi. The inhibition zones were measured in mm. Discs impregnated with DMSO were used as a control, and their inhibition zone was subtracted from the tested compound's actual inhibition zone.

Escherichia coli = experiment: as above; type: cell-based; details: nutrient agar, 37° C., 48 hours
Description: as §1

Pseudomonas aeruginosa = experiment: as above; type: cell-based; details: nutrient agar, 37° C., 48 hours
Description: as §1

Staphylococcus aureus = experiment: as above; type: cell-based; details: nutrient agar, 37° C., 48 hours
Description: as §1

Aspergillus flavus = experiment: Agar plate disc-diffusion, antifungal inhibition zone; type: cell-based; details: Sabouraud's dextrose agar, 37° C., 72 hours
Description: as §1

[1] = test system: Chrysosporium keratinophilum; experiment: as above; type: cell-based; details: Sabouraud's dextrose agar, 37° C., 72 hours
Description: as §1

[2] = A = concentration of comp. = 10,000 μL
[3] = B = concentration of comp. = 30,000 μL
[4] = C = concentration of comp. = 50,000 μL
[5] = A = concentration of comp. = 10,000 μg/mL

SMILES | inhibition zone, Bacillus Cereus (Bacillus cereus; [2]) [mm] | inhibition zone, Bacillus Cereus (Bacillus cereus; [3]) [mm] | inhibition zone, Bacillus Cereus (Bacillus cereus; [4]) [mm] | inhibition zone, Escherichia coli (Escherichia coli; [2]) [mm] | inhibition zone, Escherichia coli (Escherichia coli; [3]) [mm] | inhibition zone, Escherichia coli (Escherichia coli; [4]) [mm] | inhibition zone, Pseudomonas aeruginosa (Pseudomonas aeruginosa; [2]) [mm] | inhibition zone, Pseudomonas aeruginosa (Pseudomonas aeruginosa; [3]) [mm] | inhibition zone, Pseudomonas aeruginosa (Pseudomonas aeruginosa; [4]) [mm] | inhibition zone, Staphylococcus aureus (Staphylococcus aureus; [2]) [mm] | inhibition zone, Staphylococcus aureus (Staphylococcus aureus; [3]) [mm] | inhibition zone, Staphylococcus aureus (Staphylococcus aureus; [4]) [mm] | inhibition zone, Aspergillus flavus (Aspergillus flavus; [5]) [mm] | inhibition zone, Aspergillus flavus (Aspergillus flavus; [3]) [mm] | inhibition zone, Aspergillus flavus (Aspergillus flavus; [4]) [mm] | inhibition zone, Chrysosporium keratinophilum [1, 5] [mm] | inhibition zone, Chrysosporium keratinophilum [1, 3] [mm] | inhibition zone, Chrysosporium keratinophilum [1, 4] [mm] | melting point
N/C(=N\OC(=O)CSc1nnc(-c2ccc(Cl)cc2)o1)c1ccccc1 [Compound 3, N′-(2-(5-(4-chlorophenyl)-1,3,4-oxadiazol-2-ylthio)acetoxy)benzimidamide] | 27 | 29 | 40 | 22 | 33 | 46 | 25 | 29 | 50 | 38 | 42 | 52 | 27 | 29 | 38 | 24 | 29 | 50 | ~ 174 °C and 174 °C
O=C(O)c1cn(C2CC2)c2cc(N3CCNCC3)c(F)cc2c1=O [Cip., ciprofloxacin, reference compound] | 29 | 30 | 42 | 30 | 39 | 60 | 29 | 30 | 53 | 43 | 44 | 53 | 29 | 30 | 42 | 29 | 30 | 53 | 
